The results in this text go back to patent publication US7166588B2 (priority 2000, dated 2007).

Each structure is given as a SMILES string. Where a name gives a salt, the structure may show the parent alone.

The assay has as its target acetylcholinesterase (AChE), human recombinant (Homo sapiens, UniProt P22303). Nature of the assay: biochemical. The settings on record: pre-incubation of the enzyme with inhibitor, read-out: IC50 (AChE, mE, hr).

acetylcholinesterase (AChE), human recombinant, sequence (P22303 32-614): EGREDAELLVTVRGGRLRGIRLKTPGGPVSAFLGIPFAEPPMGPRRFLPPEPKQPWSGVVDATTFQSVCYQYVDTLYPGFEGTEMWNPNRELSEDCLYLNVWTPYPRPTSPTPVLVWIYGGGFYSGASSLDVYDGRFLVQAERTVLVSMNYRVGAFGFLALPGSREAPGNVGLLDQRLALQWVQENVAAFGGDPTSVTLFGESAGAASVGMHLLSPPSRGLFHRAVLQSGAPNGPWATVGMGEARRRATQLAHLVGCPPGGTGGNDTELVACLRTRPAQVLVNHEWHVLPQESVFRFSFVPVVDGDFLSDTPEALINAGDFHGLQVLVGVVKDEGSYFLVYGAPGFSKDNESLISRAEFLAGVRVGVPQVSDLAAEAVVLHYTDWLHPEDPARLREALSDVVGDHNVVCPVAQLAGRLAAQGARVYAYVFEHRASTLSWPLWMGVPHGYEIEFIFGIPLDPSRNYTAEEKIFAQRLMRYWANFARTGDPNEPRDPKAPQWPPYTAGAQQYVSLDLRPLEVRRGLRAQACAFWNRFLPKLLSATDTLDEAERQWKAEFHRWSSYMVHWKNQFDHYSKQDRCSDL

Turning to `COc1ccc2c3c1O[C@H]1CC(O)C=CC31CCN(C(=O)NC(C)(C)C)C2` (stereo partly shown) [SPH-1283], the IC50 was determined as 93 µM.

With `COc1ccc2c3c1O[C@H]1CC(O)C=C[C@@]31CC[N+](C)(Cc1ccc(Br)cc1)C2` (single isomer, unassigned; (-)) [SPH-1184, (−)(4-Bromophenyl)methylgalanthaminium bromide hemihydrate], the IC50 came to 0.2 µM.

For the molecule `C#CC[N+]1(C)CCC23C=C[C@@H](O)C[C@H]2Oc2c(OC)cc(C)c(c23)C1` (stereo partly shown) [SPH-1206], the IC50 turned out to be 78 µM.

In the case of `COc1ccc2c3c1O[C@@H]1C[C@H](O)C=CC31CCN(C(=O)NC(C)(C)C)C2` (stereo partly shown) [SPH-1270], the half-maximal inhibitory concentration (IC50) was 2.5 µM.

Regarding `CCN(CC)c1nc(N(CC)CC)nc(N2CCC34C=C[C@@H](O)C[C@H]3Oc3c(OC)ccc(c34)C2)n1` (stereo partly shown) [SPH-1243], the IC50 worked out at 40 µM.

On to `COc1ccc2c3c1O[C@@H]1CC(O)C=CC31CCN(CCCN1CCCCC1)C2` (stereo in doubt) [SPH-1371, (4aα,6b, 8aR* )-4a,5,9,10,111,12-Hexahydro-3-methoxy-11-[3-(1-piperidinyl)propyl]-6H-benzofuro[3a,3,2-ef][2]benzazepin-6-ol, Dihydrobromide, Dihydrate], for which the IC50 came out at 0.36 µM.

For `COc1ccc2c3c1O[C@@H]1C[C@H](O)C=CC31CCN(C(=O)NC(C)(C)C)C2` (stereo partly shown) [SPH-1221], the half-maximal inhibitory concentration (IC50) stood at 4.8 µM.

Regarding `COc1ccc2c3c1O[C@@H]1CC(O)C=CC31CCN(C)C2C#N` (stereo partly shown) [SPH-1290], the IC50 stood at 1.2 µM.

Consider `COC(=O)/C=C(\C(=O)OC)N1CCC23C=C[C@@H](O)C[C@H]2Oc2c(OC)ccc(c23)C1` (stereo partly shown) [SPH-1259], for which the IC50 turned out to be 140 µM.

With `COc1ccc2c3c1O[C@@H]1CC(O)C=CC31CCN(C(N)=O)C2` (stereo partly shown) [SPH-1268], the IC50 came to 44 µM.

For the molecule `CNC(=S)N1CCC23C=C[C@H](O)CC2Oc2c(OC)cc(Br)c(c23)C1` (stereo partly drawn) [SPH-1209, (6R)-1-Bromo-6-hydroxy-3-methoxy-N^11-methyl-5,6,9,10-tetrahydro-4aH-[1]benzofuro[3a,3,2-ef][2]benzazepine-11(12H)-thiocarboxylic acid amide], the IC50 worked out at 31 µM.

In the case of `COc1cc(C)c2c3c1O[C@@H]1C[C@H](O)C=CC31CC[N+](C)(Cc1ccc(C(F)(F)F)cc1)C2` (stereo partly shown) [SPH-1253], the IC50 is 60 µM.

As to `C#CC[N+]1(C)CC[C@@]23C=C[C@@H](O)C[C@@H]2Oc2c(OC)cc(C)c(c23)C1` (mixture of isomers) [SPH-1251], the IC50 was found to be 59 µM.

As to `COc1ccc2c3c1O[C@@H]1CC(O)C=CC31CCN(CCCO)C2` (stereo partly shown) [SPH-1315], the IC50 worked out at 2.8 µM.

On to `COc1ccc2c3c1O[C@@H]1CC(O)C=CC31CCN(C(=O)Oc1ccccc1)C2` (stereo partly shown) [SPH-1296], for which the IC50 was 46 µM.

Turning to `COc1ccc2c3c1O[C@@H]1CC(O)C=CC31CCN(C(=S)Oc1ccccc1)C2` (stereo partly shown) [SPH-1328], the IC50 turned out to be 7.2 µM.

Turning to `COc1ccc2c3c1O[C@@H]1C[C@H](O)C=CC31CCN(C=C(C#N)C#N)C2` (stereo partly shown) [SPH-1219], the IC50 is 28.5 µM.

In the case of `COc1ccc2c3c1O[C@@H]1C[C@H](O)C=CC31CCN(C(=O)NC(C)C)C2` (stereo partly shown) [SPH-1269], the IC50 stood at 2.6 µM.

For the molecule `CNC(=S)N1CCC23C=C[C@@H](O)C[C@H]2Oc2c(OC)ccc(c23)C1` (stereo partly shown) [SPH-1211], the IC50 came out at 23 µM.

Take `COc1ccc2c3c1O[C@@H]1C[C@H](N)C=CC31CCN(C)C2` (stereo partly drawn) [SPH-1227, [4aS-(4aα,6α,8aR*)]-4a,5,9,10,11,12-Hexahydro-3-methoxy-11-methyl-6H-benzofuro[3a,3,2-ef][2]benzazepine-6-amine]: the IC50 came out at 40 µM.

With `CNC(=S)N1CCC23C=C[C@@H](O)C[C@H]2Oc2c(OC)ccc(c23)C1` (stereo partly shown) [SPH-1287], the IC50 was 18.5 µM.

Take `COc1ccc2c3c1O[C@@H]1CC(O)C=CC31CCN(CC#N)C2` (stereo partly shown) [SPH-1295]: the IC50 came out at 15 µM.

With `COc1ccc2c3c1O[C@@H]1CC(O)C=CC31CCN(C)C2C#N` (stereo partly shown) [SPH-1291], the IC50 stood at 0.8 µM.

For the molecule `COc1ccc2c3c1O[C@@H]1C[C@H](O)C=CC31CCN(CCC(=O)NC(C)C)C2` (stereo partly shown) [SPH-1262], the IC50 worked out at 54.5 µM.

As for `COc1ccc2c3c1O[C@@H]1CC(O)C=CC31CCN(c1ccnc(OCCCN(C)C)n1)C2` (stereo in doubt) [SPH-1244, (6R)-11-(2-(3-(Dimethylamino)propoxy)-4-pyrimidinyl)-3-methoxy-5,6,9,10,11,12-hexahydro-4aH-[1]benzofuro[3a,3,2-ef][2]benzazepin-6-ol], the IC50 is 7.6 µM.

As to `COc1cc(C)c2c3c1O[C@@H]1C[C@H](O)C=CC31CC[N+](C)(Cc1ccccc1)C2` (stereo partly shown) [SPH-1207], the half-inhibitory concentration (IC50) was determined as 47 µM.

In the case of `COc1ccc2c3c1O[C@@H]1C[C@H](O)C=CC31CCN(CCC(=O)NC(C)(C)C)C2` (stereo partly shown) [SPH-1249], the half-maximal inhibitory concentration (IC50) is 45 µM.

In the case of `COc1ccc2c3c1O[C@H]1CC(O)C=C[C@@]31CCN(C(=O)OC(C)(C)C)C2` (relative stereo) [SPH-1302, (4aa,6β,8aR*)-4a,5,9,10-Tetrahydro-6-hydroxy-3-methoxy-6H-benzofuro[3a,3,2-ef][2]benzazepine-11(12H)-carboxylic acid-1,1-dimethylethyl ester], the IC50 was found to be 23 µM.

As for `COc1ccc2c3c1O[C@@H]1C[C@H](O)C=CC31CCN(CCCO)C2` (stereo partly shown) [SPH-1220], the IC50 came out at 7.2 µM.

Take `COc1cc2c(cc1OC)C(=O)C(CCCCN1CCC34C=CC(O)C[C@H]3Oc3c(OC)ccc(c34)C1)C2` (stereo partly shown) [SPH-1335]: the IC50 was 0.02 µM.

Turning to `COc1ccc2c3c1O[C@@H]1C[C@H](O)C=CC31CCN(C(=O)Nc1ccccc1)C2` (stereo partly shown) [SPH-1215], the IC50 came out at 70 µM.

Consider `COc1ccc2c3c1O[C@@H]1CC(O)C=CC31CCN(c1cccs1)C2` (stereo partly shown) [SPH-1282], for which the IC50 was 4 µM.

Take `COc1ccc2c3c1O[C@@H]1CC(O)C=CC31CCN(CCCN1CCCCC1)C2` (stereo partly shown) [SPH-1286]: the IC50 amounted to 0.3 µM.

As to `COc1ccc2c3c1O[C@@H]1C[C@H](O)C=CC31CCN(CCCN1CC3CC1CN3c1ccc(F)cc1)C2` (stereo partly shown) [SPH-1196], the half-maximal inhibitory concentration (IC50) is 5.2 µM.

In the case of `COc1ccc2c3c1O[C@H]1CC(O)C=CC31CCN(C(=O)NC(C)C)C2` (stereo partly shown) [SPH-1284], the IC50 amounted to 8 µM.

Regarding `COc1cc(C)c2c3c1OC1CC(O)C=CC31CCN(C)C2C` (stereo not shown) [SPH-1320], the half-inhibitory concentration (IC50) came out at 83 µM.

As to `COc1ccc2c3c1O[C@@H]1C[C@H](O)C=CC31CCN(C(=O)Nc1ccc3ccccc3c1)C2` (stereo partly shown) [SPH-1232], the IC50 was determined as 36 µM.

As for `COc1ccc2c3c1O[C@@H]1C[C@H](O)C=CC31CCN(c1ncccn1)C2` (stereo partly shown) [SPH-1229], the IC50 is 38 µM.

`COc1cc2c(cc1OC)C(=O)C(CCCCN1CCC34C=CC(O)C[C@H]3Oc3c(OC)ccc(c34)C1)C2` (stereo partly shown) [SPH-1376]: the IC50 stood at 0.02 µM.

Consider `C=CCNC(=S)N1CCC23C=C[C@@H](O)C[C@H]2Oc2c(OC)ccc(c23)C1` (stereo partly shown) [SPH-1236], for which the IC50 is 21 µM.

Take `COc1ccc2c3c1O[C@H]1CC(O)C=CC31CCN(CCCN1CCCCC1)C2` (stereo partly shown) [SPH-1333]: the IC50 was determined as 9 µM.

`COc1ccc2c3c1O[C@@H]1CC(O)C=CC31CCN(CC1CC1)C2` (stereo partly shown) [SPH-1289]: the IC50 is 0.7 µM.

As for `COc1ccc2c3c1O[C@@H]1CC(O)C=CC31CCN(CCCN1CC3CC1CN3c1ccc(F)cc1)C2` (stereo partly shown) [SPH-1312], the half-inhibitory concentration (IC50) came out at 3 µM.

With `CCN(CC)c1nccc(N2CCC34C=C[C@@H](O)C[C@H]3Oc3c(OC)ccc(c34)C2)n1` (stereo partly shown) [SPH-1245], the IC50 turned out to be 25 µM.

Take `COc1ccc2c3c1O[C@@H]1CC(O)C=CC31CCN(C(=O)NC(C)C)C2` (stereo in doubt) [SPH-1214, (6R)-6-Hydroxy-N^11-isopropyl-3-methoxy-5,6,9,10-tetrahydro-4aH-[1]benzofuro[3a,3,2-ef][2]benzazepine-11(12H)carboxamide]: the IC50 is 4.2 µM.

Take `COc1ccc2c3c1O[C@@H]1C[C@H](O)C=CC31CCN(C(=O)Nc1ccc(Cl)cc1)C2` (stereo partly shown) [SPH-1237]: the IC50 came to 24 µM.

Regarding `COc1ccc2c3c1O[C@@H]1CC(O)C=CC31CCN(c1ccccc1)C2` (stereo partly shown) [SPH-1280], the IC50 was 0.5 µM.

Take `COc1ccc2c3c1O[C@@H]1CC(O)C=CC31CCN(CC(=O)N1CC3CC1CN3c1ccccc1)C2` (stereo partly shown) [SPH-1314]: the IC50 is 8.4 µM.

For `COc1ccc2c3c1O[C@H]1CC(O)C=C[C@@]31CC[N+](C)(CCCCl)C2` (single isomer, unassigned; (-)) [SPH-1191, (−)(3-Chloropropyl)-galanthaminium Bromide, 1.25 H2O], the IC50 was 0.35 µM.

For the molecule `COc1ccc2c3c1O[C@@H]1C[C@H](O)C=CC31CCN(C(=O)NC(C)c1ccccc1)C2` (stereo partly shown) [SPH-1267], the IC50 amounted to 30 µM.

On to `COc1ccc2c3c1O[C@@H]1CC(O)C=CC31CCN(C)C2C` (stereo partly shown) [SPH-1293], for which the half-maximal inhibitory concentration (IC50) came to 4.2 µM.

With `COc1cc2c(cc1OC)C(=O)C(CCCCCN1CCC34C=CC(O)C[C@H]3Oc3c(OC)ccc(c34)C1)C2` (stereo partly shown) [SPH-1375], the half-inhibitory concentration (IC50) was found to be 0.023 µM.

In the case of `COc1cc(C)c2c3c1O[C@@H]1C[C@H](O)C=CC31CCN(CCCN1CCCCC1)C2` (stereo partly shown) [SPH-1201], the IC50 was found to be 46 µM.

As for `COc1ccc2c3c1O[C@@H]1CC(O)C=CC31CCN(C(=O)OCC1c3ccccc3-c3ccccc31)C2` (stereo partly shown) [SPH-1292], the concentration for half-maximal inhibition (IC50) amounted to 40 µM.

In the case of `COc1cc(C)c2c3c1O[C@@H]1CC(O)C=CC31CCN(C)C2C#N` (stereo partly shown) [SPH-1317], the half-maximal inhibitory concentration (IC50) came out at 80 µM.

Regarding `COc1cc2c(cc1OC)C(=O)C(CCCCCN1CCC34C=CC(O)C[C@H]3Oc3c(OC)ccc(c34)C1)C2` (stereo partly drawn) [SPH-1359, 2-[5-[(4aS,6R,8aS)-6-Hydroxy-3-methoxy-5,6,9,10,11,12-hexahydro-4aH-benzofuro[3a,3,2-e,f][2]benzazepine-11-yl]pentyl]-5,6-dimethoxyindan-1-one], the IC50 came to 0.0052 µM.

Take `COc1ccc2c3c1O[C@@H]1C[C@H](O)C=CC31CCN(CCCN)C2` (stereo partly shown) [SPH-1235]: the IC50 came to 3.4 µM.

Turning to `COc1ccc2c3c1O[C@@H]1CC(O)C=CC31CCN(/C(=N/C#N)SC)C2` (stereo partly shown) [SPH-1272], the IC50 came out at 6.7 µM.
